Entries after “also recorded” stand apart in the source; their conditions may differ.
Tests used:
[1] = system: MRSA; assay: Kill or inhibit growth/proliferation; morphology, biofilm and growth disruption (Tables 5, 6); assay type: cell-based, Methicillin-resistant Staphylococcus aureus; set-up: key: A: Peptide aggregates; B: Less hyphal formation; Clumps; Diffuse clumps and small polyps; F: Diffuse growth; H: Thin; I: Growth inhibition; Microcolony formation; Rippled; Small polyps; Thick; W: Halo formation on top, microlonies on bottom; note: test concentration or dose not given here
[2] = system: microorganisms; assay: Peptides having multiple activities (targeting/binding, antimicrobial, growth or phenotype altering)
Source text: In certain embodiments, peptides described herein can have multiple activities. Thus for example, a peptide can have both binding/targeting activity and antimicrobial activity. Such peptides can be used, e.g., in a chimeric construct, for any or all of these properties. Thus, for example, a peptide designated “B” in Table 8 can be used as a targeting peptide. If it is also designated G or M it can also be used for antimicrobial activity.

[3] = system: microorganisms (e.g., bacteria, yeasts, fungi); assay: Targeting peptide binding to target microorganisms (Table 3); conditions: preferably 1x PBS; for Target(s) (microorganisms bound by the targeting peptide): peptide binding in aqueous buffers varied by peptide solubility
[4] = microorganism the targeting peptide binds, binding in aqueous buffers varied by peptide solubility
[5] = microorganism(s) the targeting peptide binds, peptide binding conducted in aqueous buffers varied by peptide solubility
[6] = microorganism(s) the targeting peptide binds, binding in aqueous buffers depending on peptide solubility

| Substance | Organism, effect [1] | Activities [2] | Target(s) [3, 4] | Target(s) [3, 5] | Organism, effect (morphology, biofilm and growth disruption) [1] | Target(s) (microorganisms bound by the targeting peptide) [3] | Target(s) [3, 6] |
| --- | --- | --- | --- | --- | --- | --- | --- |
| PF-015: peptide having multiple activities (chain 1 SIDKRNLYNLKYYE; chain 2 SIDKRNLYNLKYYE; Peptide with targeting and/or antimicrobial activity) | MRSA (W) | G B | E. faecalis; also recorded: C. jeikeium |  |  |  |  |
| PF-551: peptide having multiple activities (chain 1 QVKEKRREIELQFRDAEKKLEASVQAE; chain 2 QVKEKRREIELQFRDAEKKLEASVQAE; Peptide with targeting and/or antimicrobial activity) | MRSA (C) | G B |  | S. pneumoniae |  |  |  |
| PF-058: peptide having multiple activities (chain 1 FADQSQDNA; chain 2 FADQSQDNA; Peptide with targeting and/or antimicrobial activity) | MRSA (M) | G B | S. epidermidis and M. luteus and E. coli and C. albicans and MRSA and C. jeikeium and C. jejuni |  |  |  |  |
| PF-738: peptide having multiple activities (KSGATSAASGAKSGASS; Peptide with targeting and/or antimicrobial activity) |  | G B |  |  | MRSA (M) | S. epidermidis; also recorded: C. albicans; also recorded: C. jeikeium |  |
| PF-031: peptide having multiple activities (chain 1 MPHHSTTSSRIVVPAHQSNMASTPNLSITP; chain 2 MPHHSTTSSRIVVPAHQSNMASTPNLSITP; Peptide with targeting and/or antimicrobial activity) | MRSA (M) | G B | M. luteus; also recorded: C. albicans |  |  |  |  |
| PF-026: peptide having multiple activities (chain 1 SIHFIN; chain 2 SIHFIN; Peptide with targeting and/or antimicrobial activity) | MRSA (M) | G B | S. epidermidis and M. luteus and P. mirabilis and C. albicans and MRSA and E. faecalis and C. jeikeium |  |  |  |  |
| PF-149: peptide having multiple activities (GKVSVLTRVPRSLGGAPANQ; Peptide with targeting and/or antimicrobial activity) | MRSA (H) | G B |  |  |  |  | S. epidermidis and M. luteus and E. coli and MRSA and C. jeikeium |
| PF-642: peptide having multiple activities (chain 1 FTTPMIGIPAGLLGGSYYLKRREEKGK; chain 2 FTTPMIGIPAGLLGGSYYLKRREEKGK; Peptide with targeting and/or antimicrobial activity) | MRSA (M) | G B |  |  |  | M. luteus and MRSA and C. jeikeium |  |
| PF-354: peptide having multiple activities (chain 1 FTFSKCRASNGRGFGTLWL; chain 2 FTFSKCRASNGRGFGTLWL; Peptide with targeting and/or antimicrobial activity) | MRSA (H) | G B |  |  |  |  |  |
| PF-029: peptide having multiple activities (chain 1 NSTNE; chain 2 NSTNE; Peptide with targeting and/or antimicrobial activity) | MRSA (M) | G B | S. epidermidis; also recorded: M. luteus; also recorded: C. albicans; also recorded: C. jejuni |  |  |  |  |
| PF-680 (chain 1 ADPHPTTGI; chain 2 ADPHPTTGI; Peptide with targeting and/or antimicrobial activity) |  |  |  |  | MRSA (R) | Mycobacteria spp |  |
| PF-017: peptide having multiple activities (chain 1 ESIIE; chain 2 ESIIE; Peptide with targeting and/or antimicrobial activity) | MRSA (M) | G B | E. coli |  |  |  |  |
| PF-661 (chain 1 PDEDIRRRAILPPAGPCRPMSPE; chain 2 PDEDIRRRAILPPAGPCRPMSPE; Peptide with targeting and/or antimicrobial activity) |  |  |  |  | MRSA (R) | Mycobacteria spp |  |
| PF-035: peptide having multiple activities (chain 1 SFYESY; chain 2 SFYESY; Peptide with targeting and/or antimicrobial activity) | MRSA (M) | G B | S. epidermidis and M. luteus and E. coli and C. albicans and MRSA and C. jeikeium and C. jejuni |  |  |  |  |
| PF-405: peptide having multiple activities (LVRIEVDDLEEWYERNFI; Peptide with targeting and/or antimicrobial activity) | MRSA (M) | G B |  | S. epidermidis; also recorded: E. coli; also recorded: E. faecalis |  |  |  |
| PF-156: peptide having multiple activities (LITAEQPATAPIAGK; Peptide with targeting and/or antimicrobial activity) | MRSA (H) | G B |  |  |  |  | S. epidermidis; also recorded: C. jeikeium |
| PF-382: peptide having multiple activities (chain 1 KYKCSWCKRVYTLRKDHKTAR; chain 2 KYKCSWCKRVYTLRKDHKTAR; Peptide with targeting and/or antimicrobial activity) | MRSA (M) | G B |  |  |  |  | S. epidermidis; also recorded: B. subtilis; also recorded: B. fragilis; also recorded: E. coli; also recorded: P. aeruginosa; also recorded: E. faecalis; also recorded: C. jeikeium; also recorded: C. jejuni |
| PF-049: peptide having multiple activities (chain 1 AYYLKRREEKGK; chain 2 AYYLKRREEKGK; Peptide with targeting and/or antimicrobial activity) | MRSA (S) | G B | S. epidermidis and MRSA and C. jeikeium and C. jejuni |  |  |  |  |
| PF-630: peptide having multiple activities (chain 1 IPATPIIHS; chain 2 IPATPIIHS; Peptide with targeting and/or antimicrobial activity) | MRSA (M) | G B |  |  |  |  |  |

Reference: US20110039762A1, “TARGETED ANTIMICROBIAL MOIETIES” (C3 JIAN, INC., priority 2009, published 2011)
